Experiments:
[1] = tested on: retinal ganglion cells; assay: Clinical observation: electro-functional test, PERG; format: in vivo, human; details: after 6 months of treatment, in addition to hypotensive therapy, 3 patients
Experimental: 12 randomized patients were included in 4 groups: • CIT. GROUP-3 patients treated with citicoline in oral solution 10 ml/die corresponding to 500 mg/die of citicoline, in addition to the hypotensive therapy; • NIC. […] The patients were treated and followed for 6 months. At baseline and after 6 months of treatment complete eye examination including visual acuity, control of the intraocular pressure (IOP) with Goldmann tonometry (GAT); visual field testing, electro-functional and morphological examination were performed. Then (2) electro-functional test was performed: electroretinogram from PERG pattern and of the PEV visual evoked potentials to evaluate the bioelectric responses respectively of the retinal ganglion cells and of the visual cortex evoked from the visual stimuli. The patients were positioned in an acoustically insulated semi-dark room, in front of the display surrounded by a uniform field of luminance of 5 cd/m2. […] The signal to PERG and PEV was recorded by a small electrode of Ag/AgCl positioned respectively above the lower eyelid and on the scalp. […] The peak-peak widths were measured at PERG P50-N95 for each wave. […] During a recording session, simultaneous PERG and PEV were recorded at least twice (between two and six times) and the resulting waveforms were overlapped to verify the repeatability of results. […]

[2] = tested on: glaucomatous patients; details: cited from earlier work
[3] = tested on: patients with controlled IOP; details: oral citicoline, patients with IOP <18 mmHg on b-blockers; cited from earlier work
[4] = tested on: glaucomatous patients; details: citicoline intramuscularly, 10-year follow-up; cited from earlier work
[5] = in five days; cited from earlier work

Row | Structure (SMILES) | PERG P50-N95 A [1] | increase of the width of P50-N95 tract of pERG ([2]; citicoline in oral solution) [%] | loss of nervous fibres at the retinal layer through GDX ([2]; oral solution 500 mg/die, vs antihypertensive therapy only) | latency time of VEP [3] | width of PERG signal [3] | perimetric defect (areas of not perception) [4] | elimination of the marked products [5] [%]
1 | C[N+](C)(C)CCOP(=O)([O-])OP(=O)(O)OC[C@H]1O[C@@H](n2ccc(N)nc2=O)C(O)C1O (some centres unmarked) [Citicoline, citidin-5′-difosfocholine] | 1.77 (±0.27) microV | 100 | slows down the loss of nervous fibres at the retinal layer | decrease in latency time of VEP | improvement in the width of PERG signal | reduction of the perimetric defect | 16
2 | NC(=O)c1cccnc1 [Nicotinamide] | 1.74 (±0.21) microV |  |  |  |  |  | 

From US20240261315A1 (Omikron Italia S.r.l., priority 2021, published 2024)
